These results are taken from ChEMBL document CHEMBL2311376, “Synthesis and antibacterial evaluation of a novel tricyclic oxaborole-fused fluoroquinolone” (2013).

Holding throughout (format): functional
Assay [1] concerns Escherichia coli. As to the kind of experiment: Antimicrobial activity against Escherichia coli K-12 containing delta-lacU169 tolC::Tn10 mutant by microbroth dilution assay. (Broth dilution looks for growth in wells or tubes with falling amounts of substance.)
The test system of assay [2] is Escherichia coli. The assay can be described thus: Antimicrobial activity against Escherichia coli K-12 containing delta-lacU169 mutant by microbroth dilution assay.
In a further assay the test system is Staphylococcus aureus. The assay can be described thus: Antimicrobial activity against Staphylococcus aureus ATCC 29213 by microbroth dilution assay.
Assay [3] deals with Escherichia coli. The assay can be described thus: Antimicrobial activity against Escherichia coli K-12 containing delta-lacU169 tolC::Tn10 gyrA D87Y mutant by microbroth dilution assay.
The subject of assay [4] is Escherichia coli. As to the kind of experiment: Antimicrobial activity against Escherichia coli K-12 containing delta-lacU169 tolC::Tn10 gyrA S83L mutant by microbroth dilution assay.

≈ marks a conversion by molar mass, not a printed value.

Consider `O=c1c2c(n(C3CC3)c3cc(N4CCNCC4)c(F)cc13)COB2O`, for which the MIC with Escherichia coli [1] stood at 16 µg/mL (≈ 46.6 µM); in the assay on Escherichia coli [2] it was 128 µg/mL (≈ 373 µM); with Staphylococcus aureus it was 128 µg/mL (≈ 373 µM); against Escherichia coli [3], 32 µg/mL (≈ 93.2 µM); in the assay with Escherichia coli [4], 64 µg/mL (≈ 186 µM).
For the compound `CC(C)(C)OC(=O)N1CCN(c2cc3c(cc2F)c(=O)c2c(n3C3CC3)COB2O)CC1`, the MIC in the assay on Escherichia coli [1], in the assay on Escherichia coli [2], against Staphylococcus aureus, in the assay with Escherichia coli [3] and in the assay on Escherichia coli [4] was above 256 µg/mL each time.
With `O=c1c(Br)c(CO)n(C2CC2)c2cc(N3CCNCC3)c(F)cc12`, the MIC in the assay on Escherichia coli [1] was 128 µg/mL (≈ 323 µM); against Escherichia coli [2], above 256 µg/mL; with Staphylococcus aureus, above 256 µg/mL; in the assay with Escherichia coli [3] it was above 256 µg/mL; in the assay with Escherichia coli [4], 256 µg/mL (≈ 646 µM).
`O=c1cc(CO)n(C2CC2)c2cc(N3CCNCC3)c(F)cc12`: the MIC in the assay on Escherichia coli [1], against Escherichia coli [2], in the assay on Staphylococcus aureus, against Escherichia coli [3] and with Escherichia coli [4] was above 256 µg/mL in each case.

As usually defined, the MIC is the lowest concentration found to suppress growth. High values mean a less susceptible organism, low ones a more susceptible organism.
